In the NIST ThermoML archive (doi:10.1016/j.jct.2013.01.013):
Numbers after ± are expanded uncertainties.

What was measured:
[1] = 101 kPa, Liquid; for viscosity: Capillary tube (Ostwald / Ubbelohde) method; for speed of sound: Linear variable-path acoustic interferometer; for mass density: Pycnometric method
[2] = xn = mol fraction of the nth substance listed; conditions: 101 kPa, Liquid, x2 = 0; for viscosity: Capillary tube (Ostwald / Ubbelohde) method; for speed of sound: Linear variable-path acoustic interferometer; for mass density: Pycnometric method

CC(=O)N(C)C [N,N-dimethylethanamide]
viscosity ([1]; 288.15 K): 1.15 ± 0.0095 mPa·s
speed of sound ([1]; 288.15 K): 1500.2 ± 1.6 m/s
mass density ([1]; 288.15 K): 945.5 ± 0.27 kg/m3
viscosity ([1]; 293.15 K): 1.038 ± 0.0086 mPa·s
speed of sound ([1]; 293.15 K): 1482.6 ± 1.6 m/s
mass density ([1]; 293.15 K): 941 ± 0.26 kg/m3
viscosity ([1]; 298.15 K): 0.9443 ± 0.0079 mPa·s
speed of sound ([1]; 298.15 K): 1462.1 ± 1.6 m/s
mass density ([1]; 298.15 K): 936.5 ± 0.27 kg/m3
viscosity ([1]; 303.15 K): 0.8792 ± 0.0075 mPa·s
speed of sound ([1]; 303.15 K): 1441.8 ± 1.6 m/s
mass density ([1]; 303.15 K): 932 ± 0.28 kg/m3
viscosity ([1]; 308.15 K): 0.8179 ± 0.007 mPa·s
speed of sound ([1]; 308.15 K): 1420.7 ± 1.6 m/s
mass density ([1]; 308.15 K): 927.5 ± 0.29 kg/m3
viscosity ([1]; 313.15 K): 0.7696 ± 0.0067 mPa·s
speed of sound ([1]; 313.15 K): 1402.6 ± 1.6 m/s
mass density ([1]; 313.15 K): 923 ± 0.3 kg/m3
viscosity ([1]; 318.15 K): 0.7346 ± 0.0064 mPa·s
speed of sound ([1]; 318.15 K): 1383.5 ± 1.5 m/s
mass density ([1]; 318.15 K): 918.5 ± 0.31 kg/m3

CC(=O)N(C)C [N,N-dimethylethanamide] + C=C(C)C(=O)OC
viscosity ([2]; 288.15 K): 1.15 ± 0.0095 mPa·s
speed of sound ([2]; 288.15 K): 1500.2 ± 1.6 m/s
mass density ([2]; 288.15 K): 945.5 ± 0.27 kg/m3
viscosity ([2]; 293.15 K): 1.038 ± 0.0086 mPa·s
speed of sound ([2]; 293.15 K): 1482.6 ± 1.6 m/s
mass density ([2]; 293.15 K): 941 ± 0.26 kg/m3
viscosity ([2]; 298.15 K): 0.9443 ± 0.0079 mPa·s
speed of sound ([2]; 298.15 K): 1462.1 ± 1.6 m/s
mass density ([2]; 298.15 K): 936.5 ± 0.27 kg/m3
viscosity ([2]; 303.15 K): 0.8792 ± 0.0075 mPa·s
speed of sound ([2]; 303.15 K): 1441.8 ± 1.6 m/s
mass density ([2]; 303.15 K): 932 ± 0.28 kg/m3
viscosity ([2]; 308.15 K): 0.8179 ± 0.007 mPa·s
speed of sound ([2]; 308.15 K): 1420.7 ± 1.6 m/s
mass density ([2]; 308.15 K): 927.5 ± 0.29 kg/m3
viscosity ([2]; 313.15 K): 0.7696 ± 0.0067 mPa·s
speed of sound ([2]; 313.15 K): 1402.6 ± 1.6 m/s
mass density ([2]; 313.15 K): 923 ± 0.3 kg/m3
viscosity ([2]; 318.15 K): 0.7346 ± 0.0064 mPa·s
speed of sound ([2]; 318.15 K): 1383.5 ± 1.5 m/s
mass density ([2]; 318.15 K): 918.5 ± 0.31 kg/m3

CN(C)C=O [dimethylformamide]
viscosity ([1]; 288.15 K): 0.9452 ± 0.0081 mPa·s
speed of sound ([1]; 288.15 K): 1503.3 ± 1.7 m/s
mass density ([1]; 288.15 K): 953.61 ± 0.29 kg/m3
viscosity ([1]; 293.15 K): 0.8685 ± 0.0075 mPa·s
speed of sound ([1]; 293.15 K): 1485.8 ± 1.7 m/s
mass density ([1]; 293.15 K): 949.1 ± 0.28 kg/m3
viscosity ([1]; 298.15 K): 0.8123 ± 0.0071 mPa·s
speed of sound ([1]; 298.15 K): 1469.5 ± 1.6 m/s
mass density ([1]; 298.15 K): 944.6 ± 0.29 kg/m3
viscosity ([1]; 303.15 K): 0.7647 ± 0.0067 mPa·s
speed of sound ([1]; 303.15 K): 1448.8 ± 1.6 m/s
mass density ([1]; 303.15 K): 940.1 ± 0.3 kg/m3
viscosity ([1]; 308.15 K): 0.7189 ± 0.0064 mPa·s
speed of sound ([1]; 308.15 K): 1429.1 ± 1.6 m/s
mass density ([1]; 308.15 K): 935.6 ± 0.31 kg/m3
viscosity ([1]; 313.15 K): 0.6851 ± 0.0061 mPa·s
speed of sound ([1]; 313.15 K): 1411.5 ± 1.6 m/s
mass density ([1]; 313.15 K): 931.1 ± 0.32 kg/m3
viscosity ([1]; 318.15 K): 0.6642 ± 0.006 mPa·s
speed of sound ([1]; 318.15 K): 1392.6 ± 1.6 m/s
mass density ([1]; 318.15 K): 926.6 ± 0.33 kg/m3

CN(C)C=O [dimethylformamide] + C=C(C)C(=O)OC
viscosity ([2]; 288.15 K): 0.9452 ± 0.0081 mPa·s
speed of sound ([2]; 288.15 K): 1503.3 ± 1.7 m/s
mass density ([2]; 288.15 K): 953.61 ± 0.29 kg/m3
viscosity ([2]; 293.15 K): 0.8685 ± 0.0075 mPa·s
speed of sound ([2]; 293.15 K): 1485.8 ± 1.7 m/s
mass density ([2]; 293.15 K): 949.1 ± 0.28 kg/m3
viscosity ([2]; 298.15 K): 0.8123 ± 0.0071 mPa·s
speed of sound ([2]; 298.15 K): 1469.5 ± 1.6 m/s
mass density ([2]; 298.15 K): 944.6 ± 0.29 kg/m3
viscosity ([2]; 303.15 K): 0.7647 ± 0.0067 mPa·s
speed of sound ([2]; 303.15 K): 1448.8 ± 1.6 m/s
mass density ([2]; 303.15 K): 940.1 ± 0.3 kg/m3
viscosity ([2]; 308.15 K): 0.7189 ± 0.0064 mPa·s
speed of sound ([2]; 308.15 K): 1429.1 ± 1.6 m/s
mass density ([2]; 308.15 K): 935.6 ± 0.31 kg/m3
viscosity ([2]; 313.15 K): 0.6851 ± 0.0061 mPa·s
speed of sound ([2]; 313.15 K): 1411.5 ± 1.6 m/s
mass density ([2]; 313.15 K): 931.1 ± 0.32 kg/m3
viscosity ([2]; 318.15 K): 0.6642 ± 0.006 mPa·s
speed of sound ([2]; 318.15 K): 1392.6 ± 1.6 m/s
mass density ([2]; 318.15 K): 926.6 ± 0.33 kg/m3

C=C(C)C(=O)OC [methyl methacrylate]
viscosity ([1]; 288.15 K): 0.634 ± 0.0056 mPa·s
speed of sound ([1]; 288.15 K): 1216.8 ± 1.4 m/s
mass density ([1]; 288.15 K): 949.1 ± 0.26 kg/m3
viscosity ([1]; 293.15 K): 0.5903 ± 0.0053 mPa·s
speed of sound ([1]; 293.15 K): 1200.5 ± 1.4 m/s
mass density ([1]; 293.15 K): 943.37 ± 0.25 kg/m3
viscosity ([1]; 298.15 K): 0.5544 ± 0.005 mPa·s
speed of sound ([1]; 298.15 K): 1183.6 ± 1.4 m/s
mass density ([1]; 298.15 K): 937.63 ± 0.25 kg/m3
viscosity ([1]; 303.15 K): 0.5251 ± 0.0048 mPa·s
speed of sound ([1]; 303.15 K): 1168.5 ± 1.4 m/s
mass density ([1]; 303.15 K): 931.89 ± 0.26 kg/m3
viscosity ([1]; 308.15 K): 0.496 ± 0.0046 mPa·s
speed of sound ([1]; 308.15 K): 1152.6 ± 1.3 m/s
mass density ([1]; 308.15 K): 926.15 ± 0.27 kg/m3
viscosity ([1]; 313.15 K): 0.4723 ± 0.0044 mPa·s
speed of sound ([1]; 313.15 K): 1135.4 ± 1.3 m/s
mass density ([1]; 313.15 K): 920.41 ± 0.28 kg/m3
viscosity ([1]; 318.15 K): 0.4499 ± 0.0042 mPa·s
speed of sound ([1]; 318.15 K): 1118.3 ± 1.3 m/s
mass density ([1]; 318.15 K): 914.66 ± 0.29 kg/m3
